# Target: B-Raf (V600E)-kinase (Homo sapiens (Human), UniProt P15056, V600E)
# Experiment: Kinase test B-RAF (V600E)
# Format: biochemical
# Settings: B-RAF (V600E) kinase test, 250 μM ATP
# Description: Kinase Test B-RAF (V600E)
# In a dilution series 10 μL of test substance solution are placed in a multiwell plate. The dilution series is selected so that generally a range of concentrations of 2 μM to 0.119 nM or 0.017 nM is covered. If necessary the initial concentration of 2 μM is changed to 50 μM, 10 μM or 0.4 μM or 0.2857 μM and further dilution is carried out accordingly. The final concentration of DMSO is 5%. 10 μL of the B-Raf (V600E)-kinase solution are pipetted in (containing 0.5 ng B-Raf (V600E)-kinase in 20 mM Tris-HCl pH 7.5, 0.1 mM EDTA, 0.1 mM EGTA, 0.286 mM sodium orthovanadate, 10% glycerol, 1 mg/mL bovine serum albumin, 1 mM dithiothreitol) and the mixture is incubated for 24 h at RT under with shaking. The kinase reaction is started by the addition of 20 μL ATP solution [final concentration: 250 μM ATP, 30 mM Tris-HCl pH 7.5, 0.02% Brij, 0.2 mM sodium orthovanadate, 10 mM magnesium acetate, 0.1 mM EGTA, phosphatase cocktail (Sigma, # P2850, dilution recommended by the manufacturer), 0.1 mM EGTA] and 10 μL MEK1 solution [containing 50 ng biotinylated MEK1 (prepared from purified MEK1 according to standard procedure, e.g. with EZ-Link Sulpho-NHS-LC-Biotin reagent, Pierce, #21335) and carried out for 60 min at RT with constant shaking. The reaction is stopped by the addition of 12 μL of a 100 mM EDTA solution and incubation is continued for a further 5 min. 55 μL of the reaction solution are transferred into a streptavidin-coated plate (e.g. Streptawell HighBond, Roche, #11989685001) and shaken gently for 1 h at RT, in order to bind biotinylated MEK1 to the plate. After elimination of the liquid the plate is washed five times with 200 μL of 1×PBS and 100 μL solution of primary antibody plus europium-labelled secondary antibody [Anti Phospho-MEK (Ser217/221), Cell Signaling, #9121 and Eu-N1 labeled goat-anti-rabbit antibody, Perkin Elmer, # AD0105], the primary antibody is diluted 1:2000 and the secondary antibody is diluted to 0.4-0.5 μg/mL in Delfia Assay Buffer (Perkin Elmer, #1244-111). After 1 h shaking at RT the solution is poured away and washed five times with 200 μL Delfia Wash Buffer (Perkin Elmer, #4010-0010/#1244-114). After the addition of 200 μL Enhancement Solution (Perkin Elmer, #4001-0010/#1244-105) the mixture is shaken for 10 min at RT and then measured in a Wallac Victor using the program “Delfia Time Resolved Fluorescence (Europium)”. IC50 values are obtained from these dosage-activity curves using a software program (GraphPadPrizm).
# Chain of B-Raf (V600E)-kinase (P15056 whole entry V600E): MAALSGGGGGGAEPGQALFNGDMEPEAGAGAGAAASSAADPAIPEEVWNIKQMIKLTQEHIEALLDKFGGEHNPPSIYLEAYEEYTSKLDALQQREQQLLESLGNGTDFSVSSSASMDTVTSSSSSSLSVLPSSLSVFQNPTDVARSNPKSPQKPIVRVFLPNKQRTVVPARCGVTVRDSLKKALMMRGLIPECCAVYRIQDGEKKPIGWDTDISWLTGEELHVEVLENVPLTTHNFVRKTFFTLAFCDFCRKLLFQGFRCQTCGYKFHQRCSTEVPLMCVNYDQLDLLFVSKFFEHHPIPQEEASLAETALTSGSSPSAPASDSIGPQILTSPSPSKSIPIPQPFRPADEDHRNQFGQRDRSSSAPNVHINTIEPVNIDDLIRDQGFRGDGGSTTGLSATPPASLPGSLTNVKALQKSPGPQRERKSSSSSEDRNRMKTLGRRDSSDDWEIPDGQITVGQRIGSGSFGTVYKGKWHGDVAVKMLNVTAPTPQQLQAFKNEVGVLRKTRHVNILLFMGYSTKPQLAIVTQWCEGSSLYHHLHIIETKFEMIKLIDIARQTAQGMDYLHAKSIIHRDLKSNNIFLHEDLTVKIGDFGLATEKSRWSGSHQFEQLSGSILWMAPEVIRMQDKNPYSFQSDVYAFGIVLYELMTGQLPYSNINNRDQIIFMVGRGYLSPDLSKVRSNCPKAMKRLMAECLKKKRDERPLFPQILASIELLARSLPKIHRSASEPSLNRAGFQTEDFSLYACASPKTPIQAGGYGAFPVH
row,IC50 [nM],Compound
1,22,CN1CCC(N2CCN(c3nc(N)c4ncnc(Nc5cccc(C(=O)Nc6cccc(C(F)(F)F)c6)c5)c4n3)CC2)CC1 [I-21]
2,3,COc1ccc(C(=O)Nc2ccc(OC)c(C(F)(F)F)c2)cc1Nc1ncnc2cnc(N(C)CCN3CCCC3)nc12 [III-21]
3,2,Cc1ccc(C(=O)Nc2cc(CN3CCCC3)c(Cl)c(C(F)(F)F)c2)cc1Nc1ncnc2cnc(N3CCOCC3)nc12 [III-528]
4,2,COCCN1CCN(c2ncc3ncnc(Nc4cc(C(=O)Nc5ccc(OC)c(C(F)(F)F)c5)ccc4F)c3n2)CC1 [III-402]
5,< 1,Cc1ccc(NC(=O)c2cccc(C(C)(C)C#N)c2)cc1Nc1ncnc2cnc(NC3CCOC3)nc12 (centres unmarked) [IV-30]
6,47,Cc1ccc(C(=O)NCc2cccc(C(C)(C)C)c2)cc1Nc1ncnc2cnc(N3CCCCC3)nc12 [III-308]
7,1,CC(C)(C)c1cc(NC(=O)c2ccc(Cl)c(Nc3ncnc4cnc(NCCCN5CCOCC5)nc34)c2)no1 [III-74]
8,10,Cc1ccc(C(=O)Nc2cccc(N(C)C)c2)cc1Nc1ncnc2cnc(N3CCCC3)nc12 [III-271]
9,2230,COc1ccc(NC(=O)c2ccc(C(F)(F)F)c(Nc3ncnc4cnc(NCCN(C)C)nc34)c2)cc1C(F)(F)F [III-52]
10,< 1,COCCN(C)c1ncc2ncnc(Nc3cc(C(=O)Nc4cc(N(C)CCN(C)C)cc(C(F)(F)F)c4)ccc3C)c2n1 [III-469]
11,4,COc1ccc(NC(=O)c2ccc(C)c(Nc3ncnc4cnc(N5CCN(C6CCN(C)CC6)CC5)nc34)c2)cc1C(F)(F)F [III-557]
12,2,COCCN(C)c1ncc2ncnc(Nc3cc(C(=O)Nc4cc(OCCN(C)C)cc(C(F)(F)F)c4)ccc3C)c2n1 [III-141]
13,1,Cc1ccc(C(=O)Nc2cc(C(C)(C)C)nn2C)cc1Oc1ncnc2cnc(N3CCOCC3)nc12 [III-591]
14,2,CN(C)CCNc1ncc2ncnc(Nc3cc(C(=O)Nc4cc(C(C)(C)C)on4)ccc3Cl)c2n1 [III-77]
15,3,COc1ccc(NC(=O)c2ccc(F)c(Nc3ncnc4cnc(NCCCN5CCOCC5)nc34)c2)cc1C(F)(F)F [III-36]
16,< 1,Cc1ccc(C(=O)Nc2cc(C(C)(C)C)on2)cc1Nc1ncnc2cnc(NCCCN(C)C)nc12 [III-598]
17,41,COc1c(NC(=O)c2ccc(C)c(Nc3ncnc4cnc(N5CCCCC5)nc34)c2)cc(C(C)(C)C)cc1NS(C)(=O)=O [III-338]
18,1,Cc1ccc(C(=O)Nc2cc(OCCN3CCCC3)cc(C(F)(F)F)c2)cc1Nc1ncnc2cnc(N3CCOCC3)nc12 [III-523]
19,< 1,CNc1ncc2ncnc(Nc3cc(C(=O)Nc4cc(CN5CCCC5)cc(C(F)(F)F)c4)ccc3C)c2n1 [III-116]
20,14,COc1ccc(NC(=O)c2ccc(C)c(Nc3ncnc4cnc(N5CCC(N6C[C@@H](C)O[C@@H](C)C6)CC5)nc34)c2)cc1C(F)(F)F [III-559]

row,IC50 [nM],Compound
1,2,COc1ccc(C(=O)Nc2cc(C(C)(C)C)on2)cc1Nc1ncnc2cnc(N3CCCN(C)CC3)nc12 [III-96]
2,72,Cc1ccc(NC(=O)c2cc(C(C)(C)C)nn2C)cc1Nc1ncnc2cnc(N(C)CCCN(C)C)nc12 [IV-24]
3,1,COc1ccc(NC(=O)c2ccc(C)c(Nc3ncnc4c(N)nc(N5CCCN(C)CC5)nc34)c2)cc1C(F)(F)F [I-17]
4,3,COc1ccc(NC(=O)c2ccc(C)c(Nc3ncnc4cnc(N(C)CC5CCCO5)nc34)c2)cc1C(F)(F)F (centres unmarked) [III-543]
5,3,Cc1ccc(C(=O)Nc2cc(N3C[C@@H](C)N[C@@H](C)C3)cc(C(F)(F)F)c2)cc1Nc1ncnc2cnc(N3CCOCC3)nc12 [III-524]
6,171,Cc1ccc(C(=O)NCc2ccc(C(F)(F)F)cc2)cc1Nc1ncnc2cnc(N3CCCN(C)CC3)nc12 [III-221]
7,1,Cc1ccc(NC(=O)c2cccc(C(C)(C)C#N)c2)cc1Nc1ncnc2cnc(NC3CCOC3)nc12 (centres unmarked) [IV-32]
8,< 1,COCCN1CCN(c2ncc3ncnc(Nc4cc(C(=O)Nc5cc(C(F)(F)F)ccn5)ccc4C)c3n2)CC1 [III-426]
9,9,Cc1ccc(NC(=O)c2cccc(C(F)(F)F)c2)cc1Nc1ncnc2c(N)nc(N3CC4CC3CN4C)nc12 (centres unmarked) [II-18]
10,5,CC(C)(C)c1cc(NC(=O)c2ccc(F)c(Nc3ncnc4cnc(N5CCCCC5)nc34)c2)no1 [III-88]
11,2,Cc1ccc(C(=O)Nc2cccc(S(=O)(=O)N(C)C)c2)cc1Nc1ncnc2cnc(N3CCOCC3)nc12 [III-320]
12,4,Cc1ccc(C(=O)Nc2cc(CN3CCCC3)cc(C(F)(F)F)c2)cc1Nc1ncnc2cncnc12 [V-8]
13,56,Cc1ccc(C(=O)NCc2cccc(C(C)(C)C)c2)cc1Nc1ncnc2cnc(N3CCOCC3)nc12 [III-327]
14,2,Cc1ccc(C(=O)Nc2cc(OCCN(C)C)cc(C(F)(F)F)c2)cc1Nc1ncnc2cnc(N3CCC3)nc12 [III-143]
15,< 1,Cc1ccc(C(=O)Nc2cc(CN3CCCC3)cc(C(F)(F)F)c2)cc1Nc1ncnc2cnc(NC3CC3)nc12 [III-111]
16,1,COCCN(C)c1ncc2ncnc(Nc3cc(C(=O)Nc4cc(C(C)(C)C)on4)ccc3C)c2n1 [III-474]
17,3,Cc1ccc(C(=O)Nc2cc(C(C)(C)C)n[nH]2)cc1Nc1ncnc2c(N)nc(N3CCCN(C)CC3)nc12 [I-14]
18,3,COC[C@@H]1CCCN1c1ncc2ncnc(Nc3cc(C(=O)Nc4cc(C(C)(C)C)on4)ccc3C)c2n1 [III-362]
19,1,Cc1ccc(C(=O)Nc2cccc(C(F)(F)F)c2)cc1Nc1ncnc2c(N)nc(N3CCCNCC3)nc12 [I-59]
20,2,COCCN(C)c1ncc2ncnc(Nc3cc(C(=O)Nc4cc(CN5CCCC5)cc(C(F)(F)F)c4)ccc3C)c2n1 [III-98]

row,IC50 [nM],Compound
1,2,COc1ccc(NC(=O)c2ccc(F)c(Nc3ncnc4cnc(NCCN(C)C)nc34)c2)cc1C(F)(F)F [III-39]
2,6,Cc1cn(-c2ncc3ncnc(Nc4cc(C(=O)Nc5cc(C(C)(C)C)n[nH]5)ccc4C)c3n2)cn1 [III-605]
3,4,Cc1ccc(C(=O)Nc2cc(N3CCN(C)CC3)c(F)c(C(F)(F)F)c2)cc1Nc1ncnc2cnc(N3CC[C@H](F)C3)nc12 [III-511]
4,221,Cc1ccc(NC(=O)c2cc(C(C)(C)C)nn2C)cc1Nc1ncnc2cnc(N3CCN(C)CC3)nc12 [IV-10]
5,49,COCCN1CCN(c2ncc3ncnc(Nc4cc(C(=O)Nc5cc(C(C)(C)C)cc(NS(C)(=O)=O)c5OC)ccc4C)c3n2)CC1 [III-505]
6,68,Cc1ccc(C(=O)Nc2ccc(C(F)(F)F)cc2)cc1Nc1ncnc2c(N)nc(NCCN(C)C)nc12 [I-6]
7,1,Cc1ccc(C(=O)Nc2cc(C(C)(C)C)on2)cc1Nc1ncnc2cnc(N3CCC(N4CCOCC4)CC3)nc12 [III-489]
8,1,CNc1ncnc2c(Nc3cc(C(=O)Nc4cc(C(C)(C)C)on4)ccc3C)ncnc12 [VII-1]
9,2,Cc1ccc(C(=O)Nc2cc(CN3CCCC3)cc(C(F)(F)F)c2)cc1Nc1ncnc2cnc(N3CCCCC3)nc12 [III-106]
10,3,COc1ccc(NC(=O)c2ccc(Cl)c(Nc3ncnc4cnc(N(C)CCN5CCCC5)nc34)c2)cc1C(F)(F)F [III-8]
11,2,COc1ncc2ncnc(Nc3cc(NC(=O)c4cccc(C(C)(C)C#N)c4)ccc3C)c2n1 [IV-40]
12,1,O=C(Nc1cc(C(F)(F)F)ccn1)c1ccc(F)c(Nc2ncnc3cnc(N4CCOCC4)nc23)c1 [III-393]
13,2,Cc1ccc(C(=O)Nc2cc(N3CCN(C)CC3)cc(C(F)(F)F)c2)cc1Nc1ncnc2cnc(N(C)CCF)nc12 [III-518]
14,< 1,Cc1ccc(C(=O)Nc2cccc(C(F)(F)F)c2)cc1Nc1ncnc2c(N)nc(N3C[C@H]4C[C@@H]3CN4C)nc12 [I-65]
15,8,Cc1ccc(C(=O)Nc2cc(C(C)(C)C)n[nH]2)cc1Nc1ncnc2cnc(N3CCN(C)CC3)nc12 [III-448]
16,5,COCCN1CCN(c2ncc3ncnc(Nc4cc(C(=O)Nc5cc(C(C)(C)C)ccc5OC)ccc4C)c3n2)CC1 [III-422]
17,> 15000,Cc1ccc(C(=O)NC2CC2)cc1Nc1ncnc2cnc(N3CCN(C)CC3)nc12 [III-191]
18,2,Cc1ccc(C(=O)Nc2cccc(C(F)(F)F)c2)cc1Nc1ncnc2c(N)nc(N3CC(C)NC(C)C3)nc12 (centres unmarked) [I-62]
19,1,Cc1ccc(C(=O)Nc2cc(N(C)CCN(C)C)cc(C(F)(F)F)c2)cc1Nc1ncnc2cnc(N3CCOCC3)nc12 [III-442]

# Reference: US8653087B2, “Pyrido [5, 4-D] pyrimidines as cell proliferation inhibitors” (Boehringer Ingelheim International GmbH, priority 2008, dated 2014)
